The nature of series [1]: Pharmacokinetics after intravenous bolus, rat. Type of series: in vivo. Conditions: 10 mg/kg bolus IV. The procedure: Test agents were formulated in 2% (v/v) propylene glycol in 25 mM HEPES, pH 7.4 and administered with a bolus injection at 10.0 mg/kg via the tail vain to male CD-1 mice (Charles River Laboratories) or male Wistar rats (Charles River Laboratories), or with a 30-min intravenous infusion at 4 mg/kg to male cynomolgus monkeys.
Blood samples were collected at 2.5, 5, 10, 30, 60, 120, 240 and 480 minutes after administration (mouse and rat), or at 5, 15, 30, 60, 120, 240, 360, 480 and 1440 min (Agent 1) or at 5, 15, 30, 45, 60, 90, 150, 240 and 480 min (Agent 2) after the start of infusion in monkeys. Samples were immediately mixed with a protease inhibitor cocktail (Roche cOmplete™ EDTA-free) before being cooled and centrifuged for plasma separation. Plasma samples were frozen and stored at −20° C. until analysis.
To rat samples, blank rat plasma was added up to a volume of 100 μl. […]
Mouse and rat samples: Separation was done with a C18 column (Phenomenex Kinetex XB—C18 (100×2.1 mm, 1.7 μm)), using a gradient between 1% formic acid in water and 2% DMSO in acetonitrile (Agent 1) or acetonitrile (Agent 2). […] The range of quantitation was 4-20,000 ng/mL.
Non-compartmental PK analysis on plasma concentration versus time data was analyzed by non-compartmental approaches using the WinNonlin software program (version 6.3 or above, Pharsight, Mountain View, CA). […]

A further series concerns CD4+ T cells. In words: Dendritic Cell-T cell (DC-T) proliferation assay (ProImmune). The settings on record: 22 donors; Percentage Stimulation above Background ≥0.5%, SEM=2; peptides 0.34 μM. The source says: A panel of peripheral blood mononuclear cell (PBMC) samples from healthy human donors was selected from the ProImmune Ltd (UK) cell bank. Each PBMC sample was HLA (Human Leukocyte Antigen)-typed and stored in liquid nitrogen (vapor-phase) prior to use. The panel was selected so that HLA class II alleles known to be highly expressed in the global population were well represented (data not shown). Donors were predominantly selected by DRB1 allele expression.
A Dendritic Cell-T cell (DC-T) proliferation assay (ProImmune Ltd) was used to identify the presence or potential T cell epitopes within the peptides. Adherent donor PBMCs were cultured with appropriate growth factors to generate monocyte-derived DCs. DCs were then loaded with a control (control 1 and control 2), the peptide (Agent 1, Agent 2, and Agent 3, see FIG. 8A) or left untreated. The peptides were loaded at a final concentration of 0.34 μM.
Mature antigen-loaded DCs were then co-cultured at a fixed ratio with autologous CFSE-labelled T cells in multi-well plates. Each test condition was set up in eight replicate wells and cells were incubated for 7 days. At the end of the incubation period, cell samples were stained with anti-CD4 antibody, then washed and fixed for by flow cytometric analysis. Proliferation was determined by measuring a decrease in CFSE intensity.
Data were compiled to determine antigen-induced proliferation per individual donor, calculated as Percentage Stimulation above Background. The frequency of positive donor cell responses (Percentage Antigenicity) was calculated as the proportion of responding donors out of total donors. Values were then standardized against the strength of response (an average of the Percentage Stimulation value obtained across accepted donors for each protein) to give a response index (RI).
Data obtained by flow cytometric evaluation of cell samples was analyzed using FlowJo Software (Tree Star, Inc.). The number of CFSE-dim (i.e., proliferating) cells was determined for each sample in eight replicate wells. Counts for the CD4^+ CFSE dim population in each sample were expressed as a proportion of the total CD4^+ population. The eight replicate values were then used to calculate Percentage Stimulation above Background (proportion of CD4^+ CFSE dim cells with antigen stimulation minus the proportion of CD4^+ CFSE dim cells without antigen stimulation).
Background threshold values are based on data from unstimulated cells for which a maximum acceptable resting proliferation threshold is established.
In evaluating antigenicity, it is also appropriate to take account of the frequency of donor cell responses across the study cohort. A positive response (Percentage Stimulation above Background ≥0.5%) in 2 or more independent donor samples is considered indicative of a potential T cell epitope.
Depending on the size of the study, (20, 40 or 50 donors), two responding donors sets a threshold of 10%, 5% or 4% respectively. Thus, following calculation of Percentage Stimulation above Background, the frequency of positive donor cell responses (Percentage Antigenicity) is expressed as the proportion of responding donors out of total accepted donors screened.
When calculating the antigenicity of a protein it is important to consider the strength of a response as well as the frequency of that response. This is because some binding responses may be pan-allele, but these responses may not be very strong. The strength of positive donor cell responses was determined by taking an average of the percentage stimulation value obtained across accepted donors for each protein. Determining a Response Index (RI) through the multiplication of strength and frequency values is more representative of the level of antigenicity.

Where a SMILES comes first, the peptide text is derived from it. Bridges are numbered along the chain shown (N, C = ends). [ ]: non-standard residue; d: D form. The star is where a group is joined. C16 diacid = O=C(O)CCCCCCCCCCCCCCC(=O)*; AEEA = NCCOCCOCC(=O)O

With `CC[C@H](C)[C@H](NC(=O)[C@H](CC(N)=O)NC(=O)[C@H](CCCCN)NC(=O)[C@H](C)NC(=O)[C@H](CCCCN)NC(=O)[C@H](CCCCN)NC(=O)COCCOCCNC(=O)COCCOCCNC(=O)CCCCCCCCCCCCCCC(=O)O)C(=O)N[C@H](C(=O)N[C@@H](CC(C)C)C(=O)N[C@@H](CC(C)C)C(=O)N[C@@H](CCCCN)C(=O)NCC(=O)N[C@@H](CC(C)C)C(=O)N[C@@H](CCC(=O)O)C(=O)N[C@H](C(=O)N[C@H](C(=O)N[C@@H](CC(N)=O)C(=O)N[C@@H](CC(=O)O)C(=O)N[C@@H](Cc1c[nH]c2ccccc12)C(=O)N[C@@H](Cc1c[nH]cn1)C(=O)N[C@@H](Cc1ccccc1)C(=O)N[C@H]1CSSC[C@@H](C(N)=O)NC(=O)[C@@H](CCCNC(=N)N)NC(=O)[C@H](CCCNC(=N)N)NC(=O)[C@@H](CCCCN)NC(=O)[C@H](CCCCN)NC(=O)[C@@H](CCCNC(=N)N)NC(=O)CNC(=O)[C@@H](CCCNC(=N)N)NC(=O)[C@H](CCCNC(=N)N)NC(=O)[C@@H](CCCNC(=N)N)NC1=O)[C@@H](C)CC)C(C)C)C(C)C` [Agent 1] ({C16 diacid-AEEA-AEEA}-KKAKNIVLLKGLEVINDWHFC[dR]R[dR]G[dR]K[dK]R[dR]C-NH2; disulfide 21-31), in series [1], the “increase in exposure (AUC0-inf) compared to Agent 2, at equal dose” value is given as about 27 fold. Moreover, in the series on CD4+ T cells, the “Response Index (RI)” value stood at 0.294 and the percentage antigenicity turned out to be 22.73%.

The record behind these values is patent US20240350647A1, “STING SENSITIZING AGENTS” (STipe Therapeutics ApS, priority 2023, published 2024).
